Values of other authors, collected in patent US20070293937A1, “Endoluminal medical device for local delivery of cathepsin inhibitors, method of making and treating” (MED Institute, Inc., priority 2006, published 2007).
Where a SMILES comes first, the peptide text is derived from it. The star is where a group is joined. CHN2 = [N-]=[N+]=C*

Columns and labels:
[1] = system: cathepsin C; conditions: Tompson et al.
[2] = molecular target: cathepsin C (Homo sapiens, UniProt P53634); conditions: natural inhibitors
[3] = system: cathepsin C; conditions: Green and Shaw, J. Biol. Chem. 1981
[4] = system: purified cathepsin C; conditions: as found by Kam et al.

Sequence of cathepsin C (Homo sapiens, UniProt P53634) (P53634 25-463, species assumed): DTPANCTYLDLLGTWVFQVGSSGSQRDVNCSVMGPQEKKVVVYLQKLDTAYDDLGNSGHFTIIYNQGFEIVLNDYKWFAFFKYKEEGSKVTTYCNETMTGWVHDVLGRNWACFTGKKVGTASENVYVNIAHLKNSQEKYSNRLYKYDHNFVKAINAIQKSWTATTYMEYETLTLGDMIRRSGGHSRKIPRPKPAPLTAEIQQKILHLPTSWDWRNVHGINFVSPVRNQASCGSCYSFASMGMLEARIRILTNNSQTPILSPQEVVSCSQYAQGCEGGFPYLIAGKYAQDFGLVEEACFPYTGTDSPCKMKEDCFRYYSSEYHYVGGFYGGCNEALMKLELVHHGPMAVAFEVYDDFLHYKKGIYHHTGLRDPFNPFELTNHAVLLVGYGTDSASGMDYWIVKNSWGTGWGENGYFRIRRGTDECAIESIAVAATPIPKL

CS(=O)(=O)C=CC(Cc1ccccc1)NC(=O)CN (stereo not drawn) [Gly-Phe-VS—CH3]
k2/Kl ([1]; J. Med. Chem. 1986): 56 M⁻¹ s⁻¹

CC(=O)N[C@@H](CC(C)C)C(=O)N[C@@H](CC(C)C)C(=O)N[C@H](C=O)CCCNC(=N)N [leupeptin]
inhibition of cathepsin C (in words) [2]: inhibit cathepsin C at high inhibitor concentrations

[N-]=[N+]=CC(=O)[C@H](Cc1ccccc1)NC(=O)CN [Gly-Phe-CHN2] (H-Gly-Phe-CHN2)
kobs/[l] [3]: 10^4 M^−1 s^−1
inhibition of cathepsin C (in words) [4]: potent inhibitor

cystatin
inhibition of cathepsin C (in words) [2]: inhibit cathepsin C at high inhibitor concentrations

N#CC(Cc1ccccc1)NC(=O)CN (stereo not shown) [Gly-NHCH(CH2Ph)CN]
Ki ([1]; reversible nitrile inhibitor, J. Med. Chem. 1986, read-out: Kl value): 2700 nM

CC(C)C[C@H](NC(=O)[C@H]1O[C@@H]1C(=O)O)C(=O)NCCCCN=C(N)N [Compound E-64, E-64]
inhibition of cathepsin C (in words) [2]: inhibit cathepsin C at high inhibitor concentrations
